Active and inactive are the calls of the source. No cut-off for these calls is given here.
Columns and labels:
Escherichia coli [1] = test: Induction of Escherichia coli pBR322 DNA cleavage at 0.06 mM after 5 hrs by agarose gel electrophoresis in presence of Cu2+ and DMSO
Escherichia coli [2] = test: Induction of Escherichia coli pBR322 DNA cleavage at 0.01 to 0.08 mM after 5 hrs by agarose gel electrophoresis in presence of Cu2+
Escherichia coli [3] = test: Induction of Escherichia coli pBR322 DNA cleavage assessed as conversion of supercoiled form into open circular form after 5 hrs by agarose gel electrophoresis in presence of Ni2+
Escherichia coli [4] = test: Induction of Escherichia coli pBR322 DNA cleavage assessed as maximal catalytic rate constant at 0.12 mM by agarose gel electrophoresis in presence of Cu2+
Escherichia coli [5] = test: Induction of Escherichia coli pBR322 DNA cleavage at 0.06 mM after 5 hrs by agarose gel electrophoresis in presence of Cu2+ and TMP
Escherichia coli [6] = test: Induction of Escherichia coli pBR322 DNA cleavage assessed as conversion of supercoiled form into open circular form after 5 hrs by agarose gel electrophoresis in presence of Cu2+
DNA [7] = test: Binding affinity to calf thymus DNA in presence of Cu2+; format: nucleic-acid assay; conditions: Bos taurus
Escherichia coli [8] = test: Induction of Escherichia coli pBR322 DNA cleavage at 0.06 mM after 5 hrs by agarose gel electrophoresis in presence of Cu2+ and KI
Escherichia coli [9] = test: Induction of Escherichia coli pBR322 DNA cleavage assessed as conversion of supercoiled form into linear form after 5 hrs by agarose gel electrophoresis in presence of Cu2+
Escherichia coli [10] = test: Induction of Escherichia coli pBR322 DNA cleavage at Cu2+ to compound ratio >= 1 after 5 hrs by agarose gel electrophoresis
Escherichia coli [11] = test: Induction of Escherichia coli pBR322 DNA cleavage assessed as conversion of supercoiled form into open circular form after 5 hrs by agarose gel electrophoresis in presence of Mn2+
Escherichia coli [12] = test: Induction of Escherichia coli pBR322 DNA cleavage at 0.06 mM after 5 hrs by agarose gel electrophoresis in presence of Cu2+ and t-BuOH
Escherichia coli [13] = test: Induction of Escherichia coli pBR322 DNA cleavage assessed as conversion of supercoiled form into open circular form after 5 hrs by agarose gel electrophoresis in presence of Mg2+
Escherichia coli [14] = test: Induction of Escherichia coli pBR322 DNA cleavage assessed as conversion of supercoiled form into open circular form after 5 hrs by agarose gel electrophoresis in presence of Co2+
Escherichia coli [15] = test: Induction of Escherichia coli pBR322 DNA cleavage assessed as conversion of supercoiled form into open circular form after 5 hrs by agarose gel electrophoresis in presence of Zn2+
Escherichia coli [16] = test: Induction of Escherichia coli pBR322 DNA cleavage at 0.08 mM after 5 hrs by agarose gel electrophoresis
DNA [17] = test: Binding affinity to calf thymus DNA; format: nucleic-acid assay; conditions: Bos taurus

COc1ccc2cc3[n+](cc2c1OCCOCCOCCOCCOc1c(OC)ccc2cc4[n+](cc12)CCc1cc2c(cc1-4)OCO2)CCc1cc2c(cc1-3)OCO2
Activity (Escherichia coli [1]): Active
Activity (Escherichia coli [2]): Active
Activity (Escherichia coli [3]): inactive
Kmax (Escherichia coli [4]): 125 h⁻¹
Activity (Escherichia coli [5]): Active
Activity (Escherichia coli [6]): Active
K (DNA [7]): 2.38 ×10⁴ /M
Activity (Escherichia coli [8]): inactive
Activity (Escherichia coli [9]): Active
Activity (Escherichia coli [10]): Active
Activity (Escherichia coli [11]): inactive
Activity (Escherichia coli [12]): Active
Activity (Escherichia coli [13]): inactive
Activity (Escherichia coli [14]): inactive
Activity (Escherichia coli [15]): inactive
Activity (Escherichia coli [16]): inactive
K (DNA [17]): 1.51 ×10⁴ /M

COc1ccc2cc3[n+](cc2c1OC)CCc1cc2c(cc1-3)OCO2
K (DNA [17]): 8.99 ×10³ /M

COc1ccc2cc3[n+](cc2c1OCCCOc1c(OC)ccc2cc4[n+](cc12)CCc1cc2c(cc1-4)OCO2)CCc1cc2c(cc1-3)OCO2
Activity (Escherichia coli [6]): inactive
K (DNA [17]): 1.15 ×10⁵ /M

COCCOCCOCCOCCOc1c(OC)ccc2cc3[n+](cc12)CCc1cc2c(cc1-3)OCO2
Activity (Escherichia coli [6]): inactive
K (DNA [17]): 1.46 ×10³ /M

From ChEMBL document CHEMBL3132853, “Facile synthesis of a polyether-tethered dimeric berberine as a highly effective DNA-cleaving agent in the presence of Cu(ii) ion” (Medchemcomm, 2013)
